The numbers were not newly measured in patent US20220225651A1, “STEVIOL GLYCOSIDE AND FERULIC ACID FORMULATIONS FOR FOOD AND BEVERAGES” (Sweegen, Inc., priority 2021, published 2022), which cites them from elsewhere.

For this data set the following is noted: sweetness relative to sucrose.
As to `C=C1C[C@@]23CC[C@H]4[C@@](C)(CCC[C@@]4(C)C(=O)O[C@@H]4O[C@H](CO)[C@@H](O)[C@H](O)[C@H]4O)[C@@H]2CC[C@]1(O[C@@H]1O[C@H](CO)[C@@H](O)[C@H](O)[C@H]1O[C@@H]1O[C@H](CO)[C@@H](O)[C@H](O)[C@H]1O)C3` [stevioside], the “times sweeter than sucrose” value is reported as 100-150 times. On to `C=C1C[C@@]23CC[C@H]4[C@@](C)(CCC[C@@]4(C)C(=O)O[C@@H]4O[C@H](CO)[C@@H](O)[C@H](O)[C@H]4O)[C@@H]2CC[C@]1(O[C@@H]1O[C@H](CO)[C@@H](O)[C@H](O)[C@H]1O[C@@H]1O[C@@H](C)[C@H](O)[C@@H](O)[C@H]1O)C3` [Dulcoside A], for which the “times sweeter than sucrose” value is given as “about 30 times”.

As for Rebaudioside C, the “times sweeter than sucrose” value is 40-60 times.
